The numbers were not newly measured in patent publication US20240252447A1 (Ovid Therapeutics Inc., priority 2019, published 2024), which cites them from elsewhere.

The test system of series [1] is sleep onset and sleep maintenance. Particulars: three-month efficacy study, insomnia.
The conditions of series [2]: patients with a history of drug abuse.

For `Oc1noc2c1CCNC2` [Gaboxadol, 4,5,6,7-tetrahydroisoxazolo [5,4-c]pyridine-3-ol], the “time to peak concentration” value (conventional pharmaceutical formulations such as tablets and capsules) is at most 30 min. Where the note is “plasma half-life”, the “half-life (t1/2)” value is 1.5 to 2 h. Besides, in series [1], the “effects in sleep onset and sleep maintenance” value is “failed to show significant effects in sleep onset and sleep maintenance”. The psychiatric adverse events entry in series [2] was “steep increase in psychiatric adverse events”.
